The subject of one series is Abutilon theophrasti. In words: Soil treatment herbicidal test, weed killing rate, Abutilon theophrasti. It counts as in vivo. The note with it: 672 h, 250 g per hectare, after 4 weeks, read-out: herbicidal activity (weed killing rate) with respect to Abutilon theophrasti. As for the experimental part:
(§1) POA allylphenyl ether (4.1 parts by weight), POE-POP glycol (1 part by weight), POE sorbitan laurate (0.8 parts by weight), glycerin (2.6 parts by weight), dimethylformamide (65.9 parts by weight), N-methylpyrrolidone (5.1 parts by weight), cyclohexanone (15.4 parts by weight), and aromatic hydrocarbons (5.1 parts by weight) were mixed and dissolved to prepare an emulsion. The compound of the present invention (4 mg) was dissolved in this emulsion (100 μL) to prepare a test emulsion. POA means “polyoxyalkylene”, POE means “polyoxyethylene”, and POP means “polyoxypropylene”.
(§2) A 70 cm^2 pot was filled with soil, and seeds of Digitaria ciliaris, Setaria faberi, Abutilon theophrasti and Amaranthus blitum were sown into the surface layer which was covered lightly with soil. The next day, the above test emulsion was diluted so as to achieve a predetermined amount of active ingredient and sprayed on the soil surface with a small sprayer at a spray water volume of 2,860 L per hectare.
(§3) After 4 weeks, the above ground weights of weeds in the untreated and treated areas were measured for each weed, and the weed killing rate was calculated by the following calculation formula.
(§4) Weed killing rate (%)=[(above ground weight of weeds in untreated area)−(above ground weight of weeds in treated area)/(above ground weight of weeds in untreated area)]×100

The next series has as its system Amaranthus blitum. The experiment in a line: Soil treatment herbicidal test, weed killing rate, Amaranthus blitum. The following applies: 672 h, 250 g per hectare, after 4 weeks, read-out: herbicidal activity (weed killing rate) with respect to Amaranthus blitum. It counts as in vivo. As for the experimental part:
as §1, §2, §3, §4

The melting point is the temperature of the solid-liquid transition.

With `COC12OC1(c1ccc(C(F)(F)F)nc1S(C)(=O)=O)C=NN(C)C2=O` (centres unmarked) [Compound A-1], the pest or weed control at 250 g/ha in the series with Abutilon theophrasti and with Amaranthus blitum was ≥ 80% in each case. For `COC12OC1(c1ncc(Cl)cc1S(C)(=O)=O)C=NN(C)C2=O` (centres unmarked) [Compound A-2], the pest or weed control at 250 g/ha with Abutilon theophrasti was ≥ 80%. For `COC12OC1(c1ccc(C(F)(F)F)nc1S(=O)(=O)N1CCOCC1)C=NN(C)C2=O` (centres unmarked) [Compound A-4], the pest or weed control at 250 g/ha in the series with Abutilon theophrasti and in the series with Amaranthus blitum was ≥ 80% each time. With `COCCOCc1nc(C(F)(F)F)ccc1C12C=NN(C)C(=O)C1(OC)O2` (centres unmarked) [Compound A-5], the pest or weed control at 250 g/ha in the series on Abutilon theophrasti and in the series on Amaranthus blitum was ≥ 80% each time. For the compound `COC12OC1(c1ncc(C(F)(F)F)cc1S(C)(=O)=O)C=NN(C)C2=O` (centres unmarked) [Compound A-6], the pest or weed control at 250 g/ha with Abutilon theophrasti and in the series with Amaranthus blitum was ≥ 80% each time. For the compound `COC12OC1(c1cc3cccnc3nc1C(F)(F)F)C=NN(C)C2=O` (centres unmarked) [Compound A-7], the melting point fell in the range of 203 to 210 °C. Besides, the pest or weed control at 250 g/ha in the series on Abutilon theophrasti is ≥ 80%. In addition, the pest or weed control at 250 g/ha with Amaranthus blitum is ≥ 80%. Take `COC12OC1(c1cnc(C(F)(F)F)cc1S(C)(=O)=O)C=NN(C)C2=O` (centres unmarked) [Compound A-8]: the pest or weed control at 250 g/ha with Abutilon theophrasti and in the series with Amaranthus blitum was ≥ 80% throughout. `COC12OC1(c1cc3cccnc3c(Cl)c1C(F)(F)F)C=NN(C)C2=O` (centres unmarked) [Compound A-9] returned a melting point of 238 to 239 °C. `COC12OC1(c1nn(C)c(=O)n(-c3ccc(F)cc3)c1=O)C=NN(C)C2=O` (centres unmarked) [Compound A-10] displayed a melting point of 180 to 182 °C. In the case of `COC12OC1(c1ccc(C(F)(F)F)n(C)c1=O)C=NN(C)C2=O` (centres unmarked) [Compound A-11], the melting point was in the range of 128 to 130 °C. Still for that read-out and setting: for `COC12OC1(c1cn(C)c(=O)n(-c3ccc(F)cc3)c1=O)C=NN(C)C2=O` (centres unmarked) [Compound A-17] the value was 191 to 194 °C; for `COC12OC1(c1cc3ccncc3n(-c3ccc(F)cc3)c1=O)C=NN(C)C2=O` (centres unmarked) [Compound A-18], 175 to 179 °C. In the case of `COC12OC1(c1nn(C)c(=O)c(C)c1Cl)C=NN(C)C2=O` (centres unmarked) [Compound A-23], the melting point fell in the range of 153 to 155 °C. Also, the pest or weed control at 250 g/ha with Abutilon theophrasti was ≥ 80%.

For `COC12OC1(c1ccc(C(F)(F)F)c3ncccc13)C=NN(C)C2=O` (centres unmarked) [Compound A-24], the melting point was 171 to 172 °C. Also, the pest or weed control at 250 g/ha in the series on Abutilon theophrasti was ≥ 80%. The pest or weed control at 250 g/ha in the series with Amaranthus blitum is ≥ 80%. Take `COC12OC1(c1cc(C(F)(F)F)nn1CS(C)(=O)=O)C=NN(C)C2=O` (centres unmarked) [Compound A-25]: the pest or weed control at 250 g/ha in the series with Abutilon theophrasti and in the series on Amaranthus blitum was ≥ 80% each time.

Values taken from patent US20240172752A1, “7-OXA-3,4-DIAZABICYCLO[4.1.0]HEPT-4-EN-2-ONE COMPOUND AND HERBICIDE” (Nippon Soda Co., Ltd., priority 2021, published 2024).
